Measurements as given in ChEMBL document CHEMBL5303573, “Mapping human microbiome drug metabolism by gut bacteria and their genes” (Nature, 2019).

Experiments:
[1] = The drug is tested on Bacteroides pectinophilus strain: ATCC43243 for biotransformation. The drug concentrations were measured before and after a 12-h incubation by liquid-chromatography-coupled mass spectrometry (LC–MS); details: 2 µM
[2] = bacteroides intestinalis, 12 h, 2 µM
Description: The drug is tested on Bacteroides intestinalis strain: DSM17393 for biotransformation. The drug concentrations were measured before and after a 12-h incubation by liquid-chromatography-coupled mass spectrometry (LC–MS)

[3] = The drug is tested on Collinsella aerofaciens strain: ATCC25986 for biotransformation. The drug concentrations were measured before and after a 12-h incubation by liquid-chromatography-coupled mass spectrometry (LC–MS); details: 2 µM
[4] = The drug is tested on Bifidobacterium longum subsp. Infantis strain: CCUG52486 for biotransformation. The drug concentrations were measured before and after a 12-h incubation by liquid-chromatography-coupled mass spectrometry (LC–MS); details: 2 µM
[5] = The drug is tested on Bacteroides ovatus strain: ATCC8483 for biotransformation. The drug concentrations were measured before and after a 12-h incubation by liquid-chromatography-coupled mass spectrometry (LC–MS); details: 2 µM
[6] = The drug is tested on Ruminococcus gnavus strain: ATCC29149 for biotransformation. The drug concentrations were measured before and after a 12-h incubation by liquid-chromatography-coupled mass spectrometry (LC–MS); details: mediterraneibacter gnavus, 2 µM
[7] = parabacteroides distasonis, 12 h, 2 µM
Description: The drug is tested on Parabacteroides distasonis strain: ATCC8503 for biotransformation. The drug concentrations were measured before and after a 12-h incubation by liquid-chromatography-coupled mass spectrometry (LC–MS)

SMILES	Bacterial Biotransformation [1]	Bacterial Biotransformation [2]	Bacterial Biotransformation [3]	Bacterial Biotransformation [4]	Bacterial Biotransformation [5]	Bacterial Biotransformation [6]	Bacterial Biotransformation [7]
OC(CCN1CCCCC1)(c1ccccc1)C1CC2C=CC1C2 (configuration not stated) [BIPERIDEN]	Compound NOT metabolized	Compound NOT metabolized	Compound NOT metabolized	Compound NOT metabolized	Compound NOT metabolized	Compound NOT metabolized	–
C=CCc1ccccc1OCC(O)CNC(C)C (configuration not stated) [ALPRENOLOL]	–	Compound NOT metabolized	Compound NOT metabolized	–	Compound NOT metabolized	Compound NOT metabolized	–
O=C(O)COCCN1CCN(C(c2ccccc2)c2ccc(Cl)cc2)CC1 (configuration not stated) [CETIRIZINE]	Compound metabolized	Compound metabolized	Compound NOT metabolized	Compound NOT metabolized	–	Compound NOT metabolized	Compound metabolized
CC(C)NCC(O)COc1ccc(COCCOC(C)C)cc1.CC(C)NCC(O)COc1ccc(COCCOC(C)C)cc1.O=C(O)/C=C/C(=O)O (configuration not stated) [BISOPROLOL FUMARATE]	–	Compound NOT metabolized	Compound NOT metabolized	Compound NOT metabolized	Compound NOT metabolized	Compound NOT metabolized	–
CC(NC(C)(C)C)C(=O)c1cccc(Cl)c1 (configuration not stated) [BUPROPION]	–	–	–	–	Compound metabolized	Compound NOT metabolized	Compound NOT metabolized
CCOC(=O)[C@H](CCc1ccccc1)N[C@H]1CCc2ccccc2N(CC(=O)O)C1=O [BENAZEPRIL]	Compound NOT metabolized	Compound metabolized	Compound metabolized	–	Compound metabolized	Compound NOT metabolized	Compound metabolized
CC(C)NCC(O)COc1ccc(CCOCC2CC2)cc1 (configuration not stated) [BETAXOLOL]	Compound NOT metabolized	Compound NOT metabolized	Compound NOT metabolized	Compound NOT metabolized	Compound NOT metabolized	Compound NOT metabolized	–
CCC1(c2ccc(N)cc2)CCC(=O)NC1=O (configuration not stated) [AMINOGLUTETHIMIDE]	Compound NOT metabolized	Compound NOT metabolized	Compound NOT metabolized	Compound NOT metabolized	Compound NOT metabolized	Compound NOT metabolized	–
CCN(CC)CCNC(=O)c1ccc(NC(C)=O)cc1 [ACECAINIDE]	Compound NOT metabolized	Compound NOT metabolized	Compound NOT metabolized	Compound NOT metabolized	–	Compound NOT metabolized	Compound NOT metabolized
CN/C(=N/CCSCc1nc[nH]c1C)NC#N [CIMETIDINE]	Compound NOT metabolized	Compound NOT metabolized	Compound NOT metabolized	–	–	Compound NOT metabolized	Compound NOT metabolized
O=C1CN2Cc3c(ccc(Cl)c3Cl)N=C2N1 [ANAGRELIDE]	Compound NOT metabolized	Compound NOT metabolized	Compound NOT metabolized	–	Compound NOT metabolized	Compound NOT metabolized	Compound NOT metabolized
CCCC(C)(COC(N)=O)COC(=O)NC(C)C (configuration not stated) [CARISOPRODOL]	Compound metabolized	Compound NOT metabolized	Compound metabolized	Compound NOT metabolized	–	Compound NOT metabolized	Compound metabolized
CC(C)(C#N)c1cc(Cn2cncn2)cc(C(C)(C)C#N)c1 [ANASTROZOLE]	Compound NOT metabolized	Compound NOT metabolized	Compound NOT metabolized	Compound NOT metabolized	Compound metabolized	Compound NOT metabolized	–
CCCC(=O)Nc1ccc(OCC(O)CNC(C)C)c(C(C)=O)c1 (configuration not stated) [ACEBUTOLOL]	Compound NOT metabolized	Compound NOT metabolized	Compound NOT metabolized	Compound NOT metabolized	Compound NOT metabolized	Compound NOT metabolized	–
COc1cc2c(c(OC)c1OC)-c1ccc(OC)c(=O)cc1[C@@H](NC(C)=O)CC2 [COLCHICINE]	–	Compound metabolized	Compound NOT metabolized	Compound NOT metabolized	Compound NOT metabolized	–	Compound metabolized
CC(C)NCC(O)COc1ccc(CC(N)=O)cc1 (configuration not stated) [ATENOLOL]	Compound NOT metabolized	Compound NOT metabolized	Compound NOT metabolized	Compound NOT metabolized	–	Compound NOT metabolized	Compound NOT metabolized
CN(C)CCC=C1c2ccccc2C=Cc2ccccc21 [CYCLOBENZAPRINE]	–	Compound NOT metabolized	Compound NOT metabolized	Compound NOT metabolized	Compound NOT metabolized	Compound NOT metabolized	Compound NOT metabolized
Cc1nc2n(c(=O)c1CCN1CCC(c3noc4cc(F)ccc34)CC1)CCCC2 [RISPERIDONE]	–	Compound NOT metabolized	Compound NOT metabolized	Compound NOT metabolized	Compound NOT metabolized	Compound metabolized	Compound NOT metabolized
CN1CCN(C2=Nc3cc(Cl)ccc3Nc3ccccc32)CC1 [CLOZAPINE]	Compound NOT metabolized	Compound NOT metabolized	Compound NOT metabolized	Compound NOT metabolized	Compound NOT metabolized	Compound NOT metabolized	–
C[N+]12CCC(CC1)C(OC(=O)C(O)(c1ccccc1)c1ccccc1)C2.[Br-] (configuration not stated) [CLIDINIUM BROMIDE]	–	Compound NOT metabolized	Compound NOT metabolized	Compound NOT metabolized	Compound NOT metabolized	Compound NOT metabolized	Compound NOT metabolized
c1ccc([C@H]2CN3CCSC3=N2)cc1 [LEVAMISOLE]	–	Compound metabolized	Compound metabolized	Compound NOT metabolized	Compound metabolized	Compound NOT metabolized	Compound metabolized
CCOC(=O)[C@H](CCc1ccccc1)N[C@@H](C)C(=O)N1Cc2ccccc2C[C@H]1C(=O)O	Compound metabolized	Compound metabolized	Compound NOT metabolized	Compound NOT metabolized	–	Compound NOT metabolized	Compound metabolized
CCOC(=O)[C@H](CCc1ccccc1)N[C@@H](C)C(=O)N1[C@H](C(=O)O)C[C@H]2CCCC[C@@H]21 [TRANDOLAPRIL]	–	Compound NOT metabolized	Compound NOT metabolized	Compound NOT metabolized	–	Compound NOT metabolized	Compound metabolized
O=P1(N(CCCl)CCCl)NCCCO1 (configuration not stated) [CYCLOPHOSPHAMIDE ANHYDROUS]	–	Compound NOT metabolized	Compound NOT metabolized	–	Compound NOT metabolized	Compound NOT metabolized	Compound NOT metabolized
Br.CN(C)CCCC1(c2ccc(F)cc2)OCc2cc(C#N)ccc21 (configuration not stated) [CITALOPRAM HYDROBROMIDE]	Compound NOT metabolized	Compound NOT metabolized	Compound NOT metabolized	Compound NOT metabolized	Compound NOT metabolized	Compound NOT metabolized	–
CC#C[C@]1(O)CC[C@H]2[C@@H]3CCC4=CC(=O)CCC4=C3[C@@H](c3ccc(N(C)C)cc3)C[C@@]21C [MIFEPRISTONE]	Compound NOT metabolized	Compound NOT metabolized	Compound NOT metabolized	Compound NOT metabolized	–	Compound NOT metabolized	Compound NOT metabolized
CC[C@H](C)C(=O)O[C@H]1C[C@@H](C)C=C2C=C[C@H](C)[C@H](CC[C@@H]3C[C@@H](O)CC(=O)O3)[C@H]21 [LOVASTATIN]	–	Compound metabolized	Compound NOT metabolized	Compound NOT metabolized	Compound NOT metabolized	Compound NOT metabolized	Compound metabolized
